This experiment deals with T1, GST-ICP0.241.
T1 construct: gene RL2; purified from bacterial extracts; assayed with His-tagged human E1 (UBA1) and UBE2D1
Put plainly: near-IR western blot of ICP0 auto-ubiquitination with methylated-ubiquitin, reconstituted E1/E2/E3. The class given is biochemical, Human alphaherpesvirus 1. The following applies: non-specific divalent cation chelator, not a specific ligand; E1 and UBE2D1 present, 1 mM MgCl2, 5 mM ATP, pH 7.5, 37 °C, 5 min preincubation, 60 min reaction.

One compound from paper PMC4655872, “A quantitative assay to monitor HSV-1 ICP0 ubiquitin ligase activity in vitro” (Methods (San Diego, Calif.), 2015) can be followed below.

Structures are written as SMILES.

`O=C(O)CN(CCN(CC(=O)O)CC(=O)O)CC(=O)O` [EDTA]: the IC50 turned out to be 958 µM.
